Patent US20040142851A1, “Hydrazinopeptoids and their uses for treating cancers” (priority 2001, published 2004)
Square brackets hold non-standard residues; d marks the D form. Peptide text beside a SMILES is read from it. * marks the point of attachment. Nle = CCCC[C@H](N)C(=O)O; Cbz = O=C(OCc1ccccc1)*

Experiments:
[1] = biological target: purified proteasome (chymotrypsin activity) (Homo sapiens, UniProt P28074); assay: Inhibition of the chymotrypsin catalytic activity of the purified proteasome; assay type: biochemical
Excerpt: In vitro analyses of the inhibitory potentialities of the Hydrazinoazapeptoids synthesized vis-à-vis the enzyme activities of the proteasome.
The inhibitory potentialities of the hydrazinoazapeptoids have been quantified with respect to the chymotrypsin enzyme activities of the purified proteasome. The results are expressed as percentages of activity inhibition.
Measurement of the inhibitory properties of the synthesized compounds on the chymotrypsin catalytic activity of the purified proteasome.

XL2 cells [2] = assay: FACS analysis, % of cells blocked in G2/M in XL2 cell cultures; assay type: cell-based, Xenopus; conditions: for concentration in the medium necessary to obtain a blockage in mitosis / percentage of cells blocked in mitosis, compared with ALLN (in words): XL2 cell cultures
Description: The molecules synthesized were tested in vitro on the proteolytic activities described of the proteasome, then in vivo on Xenopus (XL2) cell cultures. Knowledge of the cell cycle of XL2 cells has made it possible to carry out synchronization experiments and also to evaluate the duration of each of the phases of the cycle. […]

XL2 cells [3] = assay: Fluorescence microscopy analysis of the stages of mitosis; assay type: cell-based, Xenopus; conditions: for % Anaphase + Telophase / % Metaphase / % Prophase: 50 cells blocked in mitosis
Description: The molecules synthesized were tested in vitro on the proteolytic activities described of the proteasome, then in vivo on Xenopus (XL2) cell cultures. Knowledge of the cell cycle of XL2 cells has made it possible to carry out synchronization experiments and also to evaluate the duration of each of the phases of the cycle.
Observation of the nuclear content makes it possible to determine the different stages of the mitosis. The following results were obtained using 50 cells blocked in mitosis. The first 7 inhibitors were studied using fluorescence microscopy.

[4] = test system: cell cycle progression (mitosis); conditions: lower concentrations only slow down the mitosis; cited from earlier work
[5] = test system: mouse leukaemia cell cultures; assay: Antiproliferative effect on mouse leukaemia cell cultures; assay type: cell-based
Excerpt: We have analyzed the effect of the retro compounds on mouse leukaemia cell cultures and confirm that among these products, three compounds have an antiproliferative effect. This effect has been observed on two other cell types, rat hepatocytes and a human breast cancer line.

CC(C)CN(CC(=O)N(CC(C)C)NC(=O)CBr)NC(=O)OC(C)(C)C [P14, Boc-N^αhLeu-N-azaLeu-CH2Br]
% inhibition of chymotrypsin activity of the purified proteasome ([1]; 2 mM compound): 71%
inhibition at 2000 µM ([1]; 2 mM compound): 70%
% of cells blocked in G2/M (XL2 cells [2]; 2 μM, 0.5 h): 48.2%
% of cells blocked in G2/M (XL2 cells [2]; 4 μM, 0.5 h): 44.8%
% of cells blocked in G2/M (XL2 cells [2]; 11 μM, 0.5 h): 47.4%
% of cells blocked in G2/M (XL2 cells [2]; 22 μM, 0.5 h): 46.2%
% of cells blocked in G2/M (XL2 cells [2]; 45 μM, 0.5 h): 48.3%
% of cells blocked in G2/M (XL2 cells [2]; 91 μM, 0.5 h): 50.2%
% of cells blocked in G2/M (XL2 cells [2]; 137 μM, 1 h): 50.2%
concentration in the medium necessary to obtain a blockage in mitosis (XL2 cells [2]): 2 µM
percentage of cells blocked in mitosis, compared with ALLN (in words) (XL2 cells [2]): activity comparable to that of the ALLN

CC(C)CN(CC(=O)N(CC(N)=O)CC(C)C)NC(=O)OC(C)(C)C [P6]
inhibition at 2000 µM ([1]; 2 mM compound): 38%
% of cells blocked in G2/M (XL2 cells [2]; 167 μM, 7 h): 9.2%
inhibitory selectivity during the different stages of mitosis (in words) (XL2 cells [3]): mostly blocks cells at the end of mitosis
% Anaphase + Telophase (XL2 cells [3]): 58%
% Metaphase (XL2 cells [3]): 24%
% Prophase (XL2 cells [3]): 18%

CCCCN(NC(=O)C(=O)OCC)C(=O)CN(CC(C)C)NC(=O)OC(C)(C)C [P3, Boc-N^αhLeu-N-azaNorleu-CO2Et]
inhibition at 2000 µM ([1]; 2 mM compound): 31%
% of cells blocked in G2/M (XL2 cells [2]; 144 μM, 4 h): 14.9%
% of cells blocked in G2/M (XL2 cells [2]; 144 μM, 6 h): 15.2%
% of cells blocked in G2/M (XL2 cells [2]; 144 μM, 8 h): 13.8%
% Anaphase + Telophase (XL2 cells [3]): 53%
% Metaphase (XL2 cells [3]): 26%
% Prophase (XL2 cells [3]): 21%
melting point: 105 °C

CC(C)CN(CC(=O)N(CC(C)C)/N=C/c1ccc(B(O)O)cc1)NC(=O)OC(C)(C)C [P15p, Boc-N^αhLeu-N-azaLeu-CH-Ph-p-B(OH)2]
melting point: 186 °C

CCCC[C@@H](C=O)NC(=O)[C@H](CC(C)C)NC(=O)[C@H](CC(C)C)NC(C)=O [ALLN, N-acetyl-leucinyl-leucinyl-norleucinal, reference compound] (Ac-Leu-Leu-[Nle]-aldehyde)
% inhibition of chymotrypsin activity of the purified proteasome ([1]; 1 mM compound): 91%
inhibition at 1000 µM ([1]; 1 mM compound): 90%
% of cells blocked in G2/M (XL2 cells [2]; 100 μM, 7 h): 53%
concentration in the medium necessary to obtain a blockage in mitosis (XL2 cells [2]): 100 µM
% Anaphase + Telophase (XL2 cells [3]): 3%
% Metaphase (XL2 cells [3]): 83%
% Prophase (XL2 cells [3]): 15%
concentration producing an extended stop in mitosis [4]: > 50 µg/mL

CC(C)CN(CC(=O)N(CC(C)C)NC(N)=O)NC(=O)OC(C)(C)C [P7, Boc-N^αhLeu-N-azaLeu-CONH2]
inhibition at 2000 µM ([1]; 2 mM compound): 23%
% of cells blocked in G2/M (XL2 cells [2]; 167 μM, 7 h): 12.3%
inhibitory selectivity during the different stages of mitosis (in words) (XL2 cells [3]): much less selective
% Anaphase + Telophase (XL2 cells [3]): 38%
% Metaphase (XL2 cells [3]): 35%
% Prophase (XL2 cells [3]): 27%
melting point: 138 °C

CC(C)C[C@@H](C=O)NC(=O)[C@H](CC(C)C)NC(=O)[C@H](CC(C)C)NC(=O)OCc1ccccc1 [MG132, benzyloxycarbonyl leucinyl-leucinyl-leucinal, reference compound] (Cbz-Leu-Leu-Leu-aldehyde)
% of cells blocked in G2/M (XL2 cells [2]; 50 μM, 7 h): 60.6%

o-B(OH)2-Ph-HC═N^αhPhe-N-azaLeu-Z [PR7]
effect on proliferation (in words) [5]: proliferation inhibitors
effect on viability of the cells / cell death (in words) [5]: do not affect the viability of the cells

CC(C)CN(CC(=O)NN(CC(C)C)C(=O)C(F)(F)F)NC(=O)OC(C)(C)C [P1, Boc-N^αhLeu-azaLeu-CF3]
inhibition at 2000 µM ([1]; 2 mM compound): 29%
% of cells blocked in G2/M (XL2 cells [2]; 145 μM, 7 h): 9.2%
% Anaphase + Telophase (XL2 cells [3]): 51%
% Metaphase (XL2 cells [3]): 35%
% Prophase (XL2 cells [3]): 14%
melting point: 105 °C

CC(C)CN(CC(=O)N(Cc1ccccc1)NC(=O)CBr)NC(=O)OC(C)(C)C [P17, Boc-N^αhLeu-N-azaPhe-COCH2Br]
% inhibition of chymotrypsin activity of the purified proteasome ([1]; 2 mM compound): 80%
inhibition at 2000 µM ([1]; 2 mM compound): 70%
% of cells blocked in G2/M (XL2 cells [2]; 21 μM, 0.5 h): 46.8%
% of cells blocked in G2/M (XL2 cells [2]; 42 μM, 0.5 h): 47.3%
% of cells blocked in G2/M (XL2 cells [2]; 85 μM, 0.5 h): 50.9%
% of cells blocked in G2/M (XL2 cells [2]; 127 μM, 0.5 h): 42.8%
% of cells blocked in G2/M (XL2 cells [2]; 127 μM, 1 h): 41.7%
% of cells blocked in G2/M (XL2 cells [2]; 127 μM, 2 h): 38.3%
percentage of cells blocked in mitosis, compared with ALLN (in words) (XL2 cells [2]): activity comparable to that of the ALLN
melting point: 135 °C

BrH2COC—N^αhPhe-azaLeu-Z [PR3]
effect on proliferation (in words) [5]: inhibit proliferation
effect on viability of the cells / cell death (in words) [5]: cause cell death

CC(C)CN(CC(=O)N(CC(C)C)/N=C/c1ccccc1B(O)O)NC(=O)OC(C)(C)C [P15o, Boc-N^αhLeu-N-azaLeu-CH-Ph-o-B(OH)2]
melting point: 159 °C

CCCCN(NC(=O)C(F)(F)F)C(=O)CN(CC(C)C)NC(=O)OC(C)(C)C [P4, Boc-N^αhLeu-N-azaNorleu-CF3]
inhibition at 2000 µM ([1]; 2 mM compound): 29%
% of cells blocked in G2/M (XL2 cells [2]; 145 μM, 4 h): 16.5%
% of cells blocked in G2/M (XL2 cells [2]; 145 μM, 8 h): 13.4%
% Anaphase + Telophase (XL2 cells [3]): 42%
% Metaphase (XL2 cells [3]): 42%
% Prophase (XL2 cells [3]): 16%

CCSCC(=O)NN(CC(C)C)C(=O)CN(CC(C)C)NC(=O)OC(C)(C)C [P16]
inhibition at 2000 µM ([1]; 2 mM compound): 34%
% of cells blocked in G2/M (XL2 cells [2]; 143 μM, 7 h): 24.2%

m-B(OH)2-Ph-HC═N^αhPhe-N-azaLeu-Z [PR8]
effect on proliferation (in words) [5]: inhibit proliferation
effect on viability of the cells / cell death (in words) [5]: cause cell death

CC(C)CN(CC(=O)N(CC(C)C)NC(=O)CC#N)NC(=O)OC(C)(C)C [P12]
inhibition at 2000 µM ([1]; 2 mM compound): 48%
% of cells blocked in G2/M (XL2 cells [2]; 156 μM, 7 h): 23.5%

CC(C)CN(CC(=O)N(CC(C)C)NC=O)NC(=O)OC(C)(C)C [P13, Boc-N^αhLeu-N-azaLeu-H]
inhibition at 2000 µM ([1]; 2 mM compound): 35%
% of cells blocked in G2/M (XL2 cells [2]; 174 μM, 7 h): 20.8%
melting point: 124 °C

BrH2COC—N^αhPhe-N-azaLeu-Z [PR2]
effect on proliferation (in words) [5]: inhibit proliferation
effect on viability of the cells / cell death (in words) [5]: cause cell death

CCOC(=O)C(=O)NN(CC(C)C)C(=O)CN(CC(C)C)NC(=O)OC(C)(C)C [P9, Boc-N^αhLeu-N-azaLeu-CO2Et]
inhibition at 2000 µM ([1]; 2 mM compound): 30%
% of cells blocked in G2/M (XL2 cells [2]; 144 μM, 7 h): 14.1%

CCOC(=O)C(=O)N(CC(C)C)NC(=O)CN(CC(C)C)NC(=O)OC(C)(C)C [P5, Boc-N^αhLeu-azaLeu-CO2Et]
inhibition at 2000 µM ([1]; 2 mM compound): 32%
% of cells blocked in G2/M (XL2 cells [2]; 144 μM, 7 h): 5.2%
% Anaphase + Telophase (XL2 cells [3]): 37%
% Metaphase (XL2 cells [3]): 45%
% Prophase (XL2 cells [3]): 18%
melting point: 147 °C

o-B(OH)2-Ph-HC═N^αhLeu-N-azaLeu-Z [PR6]
effect on proliferation (in words) [5]: proliferation inhibitors
effect on viability of the cells / cell death (in words) [5]: do not affect the viability of the cells

CC(C)CN(CC(=O)N(CC(C)C)NC(=O)C(F)(F)F)NC(=O)OC(C)(C)C [P8, Boc-N^αhLeu-N-azaLeu-CF3]
inhibition at 2000 µM ([1]; 2 mM compound): 28%
% of cells blocked in G2/M (XL2 cells [2]; 146 μM, 7 h): 19.1%
melting point: 110 °C

COC(=O)N(CC(C)C)NC(=O)CN(CC(C)C)NC(=O)OC(C)(C)C [P2]
inhibition at 2000 µM ([1]; 2 mM compound): 47%
% of cells blocked in G2/M (XL2 cells [2]; 160 μM, 7 h): 6.7%
% Anaphase + Telophase (XL2 cells [3]): 46%
% Metaphase (XL2 cells [3]): 36%
% Prophase (XL2 cells [3]): 18%

Z-N^αhLeu-N-azaLys-COCH2Br [P22]
effect on proliferation (in words) [5]: inhibit proliferation
effect on viability of the cells / cell death (in words) [5]: cause cell death

Z-N^αhLeu-N-azaPhe-CH2Br [P21]
effect on proliferation (in words) [5]: proliferation inhibitors
effect on viability of the cells / cell death (in words) [5]: do not affect the viability of the cells

PhCO—N^αhLeu-N-azaLeu-CO2Et [P10]
% inhibition of chymotrypsin activity of the purified proteasome ([1]; 2 mM compound): 42%
% of cells blocked in G2/M (XL2 cells [2]; 143 μM, 7 h): 23.1%

CC(C)CN(CC(=O)N(CC(C)C)/N=C/c1cccc(B(O)O)c1)NC(=O)OC(C)(C)C [P15, Boc-N^αhLeu-N-azaLeu-CH-Ph-m-B(OH)2]
inhibition at 2000 µM ([1]; 2 mM compound): 38%
% of cells blocked in G2/M (XL2 cells [2]; 133 μM, 7 h): 35.8%

F3COC—N^αhLeu-N-azaLeu-Z [PR5]
effect on proliferation (in words) [5]: inhibit proliferation
effect on viability of the cells / cell death (in words) [5]: cause cell death

PhCO—N^αhLeu-N-azaLeu-CF3 [P11]
% inhibition of chymotrypsin activity of the purified proteasome ([1]; 2 mM compound): 40%
% of cells blocked in G2/M (XL2 cells [2]; 144 μM, 7 h): 17.2%
